Measured values published in PubChem BioAssay AID256 (DTP/NCI, 2004).
“And” between values parts separate entries of the source, which are not always exact repeats. Equal entries are not always repeated. Inconclusive results and toxic doses are left out. How the source made its calls: active means survival T/C of 150% or more; inactive means T/C below 125% in these data.

Test system: CD2F1 mice, L1210 leukemia ip, survival T/C
Experiment: NCI In Vivo Anticancer Drug Screen. Data for tumor model L1210 Leukemia (intraperitoneal) in CD2F1 (CDF1) mice
Settings: higher = longer survival
Experimental: The antitumor activity of compounds was measured in mice bearing transplantable tumors. Survival or tumor size were measured and the results are expressed as the measurement made in the treated group (T) divided by the measurement made in the vehicle treated control group (C). The tumor model used in this assay is L1210 Leukemia (intraperitoneal) in CD2F1 (CDF1) mice

[1] = endpoint: mean survival time, dose: 50.0 mg/kg/injection, schedule: Q01DX009 (ip), vehicle: saline with Tween-80
[2] = endpoint: mean survival time, dose: 100.0 mg/kg/injection, schedule: Q01DX009 (ip), vehicle: saline with Tween-80
[3] = endpoint: mean survival time, dose: 100.0 mg/kg/injection, schedule: Q04DX003 (ip), vehicle: saline with Tween-80
[4] = endpoint: mean survival time, dose: 200.0 mg/kg/injection, schedule: Q04DX003 (ip), vehicle: saline with Tween-80
[5] = endpoint: mean survival time, dose: 50.0 mg/kg/injection, schedule: Q01DX009 (ip), vehicle: saline
[6] = endpoint: mean survival time, dose: 100.0 mg/kg/injection, schedule: Q01DX009 (ip), vehicle: saline
[7] = endpoint: mean survival time, dose: 12.5 mg/kg/injection, schedule: Q01DX009 (ip), vehicle: other
[8] = endpoint: mean survival time, dose: 25.0 mg/kg/injection, schedule: Q01DX009 (ip), vehicle: other
[9] = endpoint: mean survival time, dose: 50.0 mg/kg/injection, schedule: Q01DX009 (ip), vehicle: other
[10] = endpoint: mean survival time, dose: 100.0 mg/kg/injection, schedule: Q01DX009 (ip), vehicle: other
[11] = endpoint: mean survival time, dose: 200.0 mg/kg/injection, schedule: Q01DX009 (ip), vehicle: other
[12] = endpoint: mean survival time, dose: 25.0 mg/kg/injection, schedule: Q04DX003 (ip), vehicle: saline with Tween-80
[13] = endpoint: mean survival time, dose: 50.0 mg/kg/injection, schedule: Q04DX003 (ip), vehicle: saline with Tween-80
[14] = endpoint: mean survival time, dose: 200.0 mg/kg/injection, schedule: Q01DX009 (ip), vehicle: saline with Tween-80
[15] = endpoint: mean survival time, dose: 400.0 mg/kg/injection, schedule: Q01DX009 (ip), vehicle: saline with Tween-80
[16] = endpoint: mean survival time, dose: 100.0 mg/kg/injection, schedule: Q01DX001 (ip), vehicle: saline
[17] = endpoint: mean survival time, dose: 200.0 mg/kg/injection, schedule: Q01DX001 (ip), vehicle: saline
[18] = endpoint: mean survival time, dose: 400.0 mg/kg/injection, schedule: Q01DX001 (ip), vehicle: saline

Measured: T/C

O=[N+]([O-])c1ccc(SSc2ccc([N+](=O)[O-])cn2)nc1
inactive: [1] 93 % of control | [2] 89 % of control | [3] 100 % of control | [4] 100 % of control

CCCN1CCN(c2ccccc2)CC1
inactive: endpoint: mean survival time, dose: 25.0 mg/kg/injection, schedule: Q01DX009 (ip), vehicle: saline 103 % of control | [5] 103 % of control | [6] 96 % of control | [3] 103 % of control

CC(=O)OCC1OC(OC(C)=O)C(NC(=O)NCCI)C(OC(C)=O)C1OC(C)=O (centres undefined)
inactive: [7] 93 % of control | [8] 95 % of control | [9] 92 % of control | [10] 88 % of control | [11] 98 % of control

[N-]=[N+]=NC1=C(c2ccccc2)C(=O)C=C(c2ccccc2)C1=O
inactive: [12] 94 % of control | [13] 94 % of control | [3] 101 % of control and 102 % of control | endpoint: mean survival time, dose: 400.0 mg/kg/injection, schedule: Q04DX003 (ip), vehicle: saline with Tween-80 101 % of control

CCCCCCCCCCCCCCCc1ccc(C(=O)C[n+]2ccccc2)cc1
inactive: endpoint: mean survival time, dose: 12.5 mg/kg/injection, schedule: Q01DX009 (ip), vehicle: saline with Tween-80 117 % of control | endpoint: mean survival time, dose: 12.5 mg/kg/injection, schedule: Q04DX003 (ip), vehicle: saline with Tween-80 103 % of control | [12] 106 % of control | [13] 111 % of control

O=C(O)C(C(=O)O)=C(C(=O)c1ccccc1)c1ccccc1
inactive: [10] 95 % of control | [11] 100 % of control | endpoint: mean survival time, dose: 400.0 mg/kg/injection, schedule: Q01DX009 (ip), vehicle: other 95 % of control

O=c1o[nH]c(-c2ccccc2)c1-c1ccccc1
inactive: [13] 95 % of control | [3] 98 % of control | [4] 106 % of control

O=C1/C(=C/C2CCC3CCCCC3[N-]2)N2CCC1CC2.[Cl][Co][Cl] (centres undefined)
inactive: endpoint: mean survival time, dose: 9.4 mg/kg/injection, schedule: Q04DX003 (ip), vehicle: saline 102 % of control | endpoint: mean survival time, dose: 18.8 mg/kg/injection, schedule: Q04DX003 (ip), vehicle: saline 100 % of control | endpoint: mean survival time, dose: 37.5 mg/kg/injection, schedule: Q04DX003 (ip), vehicle: saline 109 % of control

N\C([S-])=N/N=C\C(=N/N=C(\N)[S-])C(O)C(O)C(O)CO.[Fe+2] (centres undefined)
inactive: endpoint: mean survival time, dose: 100.0 mg/kg/injection, schedule: Q01DX009 (ip), vehicle: saline sonified 91 % of control | endpoint: mean survival time, dose: 200.0 mg/kg/injection, schedule: Q01DX009 (ip), vehicle: saline sonified 92 % of control

CN(CSc1ccc(Cl)cc1)c1ccccc1
inactive: [1] 96 % of control | [2] 96 % of control | [14] 96 % of control

CC(=O)OCC1OC([n+]2c([O-])cc(=O)n3ccsc32)C(OC(C)=O)C1OC(C)=O (centres undefined)
inactive: endpoint: median survival time, dose: 11.25 mg/kg/injection, schedule: Q01DX005 (ip), vehicle: water 101 % of control | endpoint: median survival time, dose: 12.5 mg/kg/injection, schedule: Q01DX005 (ip), vehicle: distilled water + Tween-80 103 % of control | endpoint: median survival time, dose: 22.5 mg/kg/injection, schedule: Q01DX005 (ip), vehicle: water 100 % of control | endpoint: median survival time, dose: 25.0 mg/kg/injection, schedule: Q01DX005 (ip), vehicle: distilled water + Tween-80 98 % of control | endpoint: median survival time, dose: 45.0 mg/kg/injection, schedule: Q01DX005 (ip), vehicle: water 108 % of control | endpoint: median survival time, dose: 50.0 mg/kg/injection, schedule: Q01DX005 (ip), vehicle: distilled water + Tween-80 98 % of control | endpoint: median survival time, dose: 90.0 mg/kg/injection, schedule: Q01DX005 (ip), vehicle: water 114 % of control | endpoint: median survival time, dose: 100.0 mg/kg/injection, schedule: Q01DX005 (ip), vehicle: distilled water + Tween-80 102 % of control | endpoint: median survival time, dose: 180.0 mg/kg/injection, schedule: Q01DX005 (ip), vehicle: water 101 % of control | endpoint: median survival time, dose: 200.0 mg/kg/injection, schedule: Q01DX005 (ip), vehicle: distilled water + Tween-80 95 % of control

CC(O)C(=O)O.CCCCOC(=O)CC(O)(CC(=O)OCCCC)C(=O)OCCCC.[Cl-].[Cl-].[NH2-].[NH2-].[Pt+4]
inactive: endpoint: mean survival time, dose: 3.13 mg/kg/injection, schedule: Q04DX003 (ip), vehicle: Klucel (hydroxypropylcellulose) (HPC) 104 % of control and 108 % of control and 105 % of control | endpoint: mean survival time, dose: 6.25 mg/kg/injection, schedule: Q04DX003 (ip), vehicle: Klucel (hydroxypropylcellulose) (HPC) 108 % of control and 111 % of control and 98 % of control | endpoint: mean survival time, dose: 12.5 mg/kg/injection, schedule: Q04DX003 (ip), vehicle: Klucel (hydroxypropylcellulose) (HPC) 109 % of control [middle of 4 runs] | endpoint: mean survival time, dose: 25.0 mg/kg/injection, schedule: Q04DX003 (ip), vehicle: Klucel (hydroxypropylcellulose) (HPC) 96 % of control and 113 % of control and 104 % of control | endpoint: mean survival time, dose: 100.0 mg/kg/injection, schedule: Q04DX003 (ip), vehicle: Klucel (hydroxypropylcellulose) (HPC) 95 % of control | endpoint: mean survival time, dose: 200.0 mg/kg/injection, schedule: Q04DX003 (ip), vehicle: Klucel (hydroxypropylcellulose) (HPC) 113 % of control

O=S(=O)(/C=C\S(=O)(=O)c1ccccc1)c1ccccc1
inactive: endpoint: mean survival time, dose: 12.5 mg/kg/injection, schedule: Q01DX009 (ip), vehicle: Klucel (hydroxypropylcellulose) (HPC) 98 % of control | endpoint: mean survival time, dose: 25.0 mg/kg/injection, schedule: Q01DX009 (ip), vehicle: Klucel (hydroxypropylcellulose) (HPC) 95 % of control

CN(N=O)C(=O)NCC1OC(OC2(CO)OC(CNC(=O)N(C)N=O)C(O)C2O)C(O)C(O)C1O (centres undefined)
inactive: [5] 119 % of control | [6] 122 % of control | endpoint: mean survival time, dose: 133.0 mg/kg/injection, schedule: Q01DX009 (ip), vehicle: saline 107 % of control

COC(=O)C1(C(=O)OC)C2C(=O)C3C(C21)C3(C(=O)OC(C)(C)C)C(=O)OC(C)(C)C (centres undefined)
inactive: [2] 96 % of control | [14] 94 % of control | [15] 93 % of control

CCOC(=O)C1C(=O)N(C)C(=O)N1c1ccccc1 (centres undefined)
inactive: [7] 98 % of control | [8] 90 % of control | [9] 87 % of control | [10] 93 % of control | [11] 87 % of control

Cc1cc(O)c(O)c([N+](=O)[O-])c1
inactive: [2] 95 % of control | [14] 97 % of control | [15] 97 % of control

Nc1ncnc2c1ncn2C1OC2COP(=O)(O)OC2C1OCc1ccccc1 (centres undefined)
inactive: endpoint: mean survival time, dose: 100.0 mg/kg/injection, schedule: Q01DX005 (ip), vehicle: saline 103 % of control | endpoint: mean survival time, dose: 200.0 mg/kg/injection, schedule: Q01DX005 (ip), vehicle: saline 94 % of control

CCC(=O)Oc1ccc(C2N(Cc3ccc(N(C)C)cc3)CCCN2Cc2ccc(N(C)C)cc2)cc1
inactive: [3] 103 % of control | [14] 89 % of control | [4] 92 % of control

CC1(c2ccccc2)C=CC(=O)CC1 (centres undefined)
inactive: endpoint: mean survival time, dose: 100.0 mg/kg/injection, schedule: Q04DX002 (ip), vehicle: saline with Tween-80 93 % of control | endpoint: mean survival time, dose: 200.0 mg/kg/injection, schedule: Q04DX002 (ip), vehicle: saline with Tween-80 101 % of control | endpoint: mean survival time, dose: 400.0 mg/kg/injection, schedule: Q04DX002 (ip), vehicle: saline with Tween-80 97 % of control

CC(C)C1CCC(C)C23CCC(=O)C2C13 (centres undefined)
inactive: endpoint: mean survival time, dose: 100.0 mg/kg/injection, schedule: Q01DX001 (ip), vehicle: acetone 100 % of control | endpoint: mean survival time, dose: 200.0 mg/kg/injection, schedule: Q01DX001 (ip), vehicle: acetone 95 % of control | endpoint: mean survival time, dose: 400.0 mg/kg/injection, schedule: Q01DX001 (ip), vehicle: acetone 110 % of control

Cn1c(=O)c2c(nc(NCCCO)n2C)n(C)c1=O
inactive: endpoint: mean survival time, dose: 12.5 mg/kg/injection, schedule: Q01DX005 (ip), vehicle: distilled water + Tween-80 100 % of control | endpoint: mean survival time, dose: 25.0 mg/kg/injection, schedule: Q01DX005 (ip), vehicle: distilled water + Tween-80 94 % of control | endpoint: mean survival time, dose: 50.0 mg/kg/injection, schedule: Q01DX005 (ip), vehicle: distilled water + Tween-80 94 % of control | endpoint: mean survival time, dose: 100.0 mg/kg/injection, schedule: Q01DX005 (ip), vehicle: distilled water + Tween-80 94 % of control | endpoint: mean survival time, dose: 200.0 mg/kg/injection, schedule: Q01DX005 (ip), vehicle: distilled water + Tween-80 98 % of control

CCON(C(C)=O)c1cccc([N+](=O)[O-])c1
inactive: [16] 97 % of control | [17] 100 % of control | [18] 97 % of control

CCc1ccccc1OCC1CO1 (centres undefined)
inactive: [16] 102 % of control | [17] 100 % of control | [18] 102 % of control
